# Measurements: patent US20240246920A1, “TRIAZOLE DERIVATIVES WITH ANTIFUNGAL ACTIVITY” (King's College London, priority 2020, published 2024)
# Like-named read-outs stand apart in the source and are kept apart here.
# What was measured:
# [1] = tested on: Candida auris TDG2512; assay: Candida panel MIC, serial dilution in 96-well plates; assay type: cell-based; conditions: Candidozyma auris, TDG2512; Table 4, extended panel; 24 hours, ≥50% inhibition; read-out: MIC Candida auris TDG2512
# Method in brief: (§1)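 RPMI/MOPS/2% glucose pH 7.0; 2-fold series 128→0.25 μg/mL; inoculum 0.5-5×10^5/mL; 37 °C, 24 h; OD530 read; MIC at ≥50% growth inhibition vs drug-free control.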
# [2] = tested on: C. auris TDG1912; assay: as above; assay type: cell-based; conditions: Candidozyma auris, TDG1912; Table 4; 24 hours, ≥50% inhibition; read-out: MIC C. auris TDG1912
# Method in brief: as §1
# [3] = tested on: Candida auris TDG1102; assay: as above; assay type: cell-based; conditions: Candidozyma auris, TDG1102; Table 4, extended panel; 24 hours, ≥50% inhibition; read-out: MIC Candida auris TDG1102
# Method in brief: as §1
# [4] = tested on: C. tropicalis NCPF8760; assay: as above; assay type: cell-based
# Method in brief: as §1
# [5] = tested on: C. parapsilosis NCPF3209; assay: microbe, parasite or virus in culture; assay type: cell-based, Candida parapsilosis; conditions: Lodderomyces parapsilosis
# Method in brief: (§2)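 MIC taken as lowest concentration inhibiting growth ≥50% relative to drug-free control, from OD530 after 24 hours at 37° C. Fungi at 0.5-5×10^5/mL were exposed to serially diluted compound in RPMI 1640/MOPS/2% glucose medium adjusted to pH 7.0.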
# [6] = tested on: Candida auris TDG2211; assay: microbe, parasite or virus in culture; assay type: cell-based; conditions: Candidozyma auris
# Method in brief: (§3)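 Growth inhibition was scored by OD530 nm after a 24 h, 37° C incubation of C. auris (0.5-5×10^5/mL) with compound dilutions in buffered RPMI glucose medium.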
# [7] = tested on: Candida auris TDG2506; assay: microbe, parasite or virus in culture; assay type: cell-based; conditions: Candidozyma auris
# Method in brief: as §3
# [8] = tested on: panel of Candida species; assay: Candida panel MIC, statements on the whole panel; assay type: cell-based; conditions: in words
# Protocol: (§4) The minimum inhibitory concentration of test compounds were determined in a panel of Candida species (see Table 4 below), using the a serial dilution method in 96-well plates using the following protocol.
# (§5) Starter cultures of fungal strains to be tested were grown in 3 mL of RPMI 2% glucose media incubated at 37° C. with shaking at 200 rpm overnight. The culture media used was 900 mL H2O; 10.4 g RPMI 1640 (with L-glutamine and a pH indicator but without bicarbonate); 34.5 g MOPS and 18 g glucose. The pH of the media was adjusted to 7.0 with 1 M sodium hydroxide.
# (§6) Solutions of the compound to be tested were prepared by dissolving the compound in DMSO and subsequently into media to the desired concentrations. 200 μL of compound solution was then added to the wells of the 96-well plate using a serial dilution method row-by row of the plate to give a compound concentration gradient across the plate of from 128 μg/mL to 0.25 μg/mL. The last two rows of each plate were control rows containing the culture media alone and the media plus fungi.
# (§7) The fungi starter cultures were diluted 1:10 in water in cuvettes. This was then further diluted to an optical density (OD600) of 0.01 in media. 100 μL of the fungi was added to each well giving a starting concentration of fungus of 0.5-5×10^5/mL. One species of fungus was used on each plate. The plates were then held at 37° C. for 24 hours.
# (§8) A plate reader was used to measure growth in each well at OD530 nm and the MIC was determined for each test compound. The MIC is defined as the lowest concentration giving rise to inhibition of ≥50% of that of the drug-free control well containing the fungus and media.
# [9] = tested on: C. krusei NCPF3876; assay: microbe, parasite or virus in culture; assay type: cell-based, Candida krusei; conditions: Pichia kudriavzevii
# Method in brief: as §2
# [10] = tested on: C. albicans NCPF3281; assay: Candida panel MIC, serial dilution in 96-well plates; assay type: cell-based, Candida albicans; conditions: NCPF3281, read-out: MIC C. albicans NCPF3281
# Method in brief: as §1
# [11] = tested on: C. glabrata NCPF8018; assay: as above; assay type: cell-based, Candida glabrata; conditions: Nakaseomyces glabratus
# Method in brief: as §2
# [12] = tested on: C. auris 8977; assay: as above; assay type: cell-based, Candida auris
# Method in brief: as §3
# [13] = tested on: C. auris 8971; assay: as above; assay type: cell-based, Candida auris
# Method in brief: as §3
# [14] = tested on: C. auris 8984; assay: as above; assay type: cell-based, Candida auris
# Method in brief: as §3
# [15] = tested on: C. albicans 8112; assay: Candida albicans panel MIC; assay type: cell-based; conditions: Table 6, Candida albicans panel
# Protocol: as §4, §5, §6, §7, §8
# (§9) The compounds shown in Table 6 were tested against a further panel of Candida albicans.
# [16] = tested on: C. albicans 3645; assay: Candida albicans panel MIC; assay type: cell-based; conditions: Table 6, Candida albicans panel
# Protocol: as §4, §5, §6, §7, §8, §9
# [17] = tested on: C. albicans 3363; assay: Candida albicans panel MIC; assay type: cell-based; conditions: Table 6, Candida albicans panel
# Protocol: as §4, §5, §6, §7, §8, §9
# [18] = tested on: C. albicans 3880; assay: Candida albicans panel MIC; assay type: cell-based; conditions: Table 6, Candida albicans panel
# Protocol: as §4, §5, §6, §7, §8, §9
# [19] = tested on: C. albicans 3881; assay: Candida albicans panel MIC; assay type: cell-based; conditions: Table 6, Candida albicans panel
# Protocol: as §4, §5, §6, §7, §8, §9
# [20] = tested on: C. albicans 3882; assay: Candida albicans panel MIC; assay type: cell-based; conditions: Table 6, Candida albicans panel
# Protocol: as §4, §5, §6, §7, §8, §9
# [21] = tested on: C. albicans 3990; assay: Candida albicans panel MIC; assay type: cell-based; conditions: Table 6, Candida albicans panel
# Protocol: as §4, §5, §6, §7, §8, §9
# [22] = NCPF8760, Table 4, common panel, 24 hours, ≥50% inhibition, read-out: MIC C. tropicalis NCPF8760
# [23] = NCPF3209, Table 4, common panel, 24 hours, ≥50% inhibition, read-out: MIC C. parapsilosis NCPF3209
# [24] = TDG2211, Table 4, extended panel, 24 hours, ≥50% inhibition, read-out: MIC Candida auris TDG2211
# [25] = TDG2506, Table 4, extended panel, 24 hours, ≥50% inhibition, read-out: MIC Candida auris TDG2506
# [26] = NCPF3876, Table 4, common panel, 24 hours, ≥50% inhibition, read-out: MIC C. krusei NCPF3876
# [27] = Candida albicans, Table 4, common panel, 24 hours, ≥50% inhibition
Compound,MIC [1] [mg/L],MIC [2] [mg/L],MIC [3] [mg/L],"MIC [4, 22] [mg/L]","MIC [5, 23] [mg/L]","MIC [6, 24] [mg/L]","MIC [7, 25] [mg/L]",Activity against Candida auris including resistant strains [8],"MIC [9, 26] [mg/L]","MIC [10, 27] [mg/L]",other results
"COc1ccc(-c2ccc(NC3CCN(CC(O)(Cn4cncn4)c4ccc(F)cc4F)CC3)cc2)cc1 (stereo not shown) [Example 4, 2-(2,4-difluorophenyl)-1-(4-((4′-methoxy-[1,1′-biphenyl]-4-yl)amino)piperidin-1-yl)-3-(1H-1,2,4-triazol-1-yl)propan-2-ol]",≤ 0.003,0.06,0.006,0.25,0.004,0.006,≤ 0.003,highly active,0.004 to 0.125,0.008,–
"N#Cc1ccccc1-c1ccc(NC2CCN(CC(O)(Cn3cncn3)c3ccc(F)cc3F)CC2)cc1 (stereo not shown) [Example 5, 4′-((1-(2-(2,4-difluorophenyl)-2-hydroxy-3-(1H-1,2,4-triazol-1-yl)propyl)piperidin-4-yl)amino)-[1,1′-biphenyl]-2-carbonitrile]",≤ 0.003,0.03,≤ 0.003,0.008 to 0.25,0.004,0.006,0.006,highly active,0.002 to 0.125,0.002 to 0.004,"MIC ([11]; NCPF8018, Table 4, common panel, 24 hours, ≥50% inhibition, read-out: MIC C. glabrata NCPF8018): 0.125 mg/L"
"C[C@@H](c1ncncc1F)[C@](O)(Cn1cncn1)c1ccc(F)cc1F [Voriconazole, voriconazole, reference compound]",> 128,> 32,> 128,–,–,> 128,2,–,–,–,"MIC ([4]; NCPF8760, read-out: MIC C. Tropicalis NCPF8760): 4 mg/L; MIC ([5]; NCPF3209, read-out: MIC C. Parapsilosis NCPF3209): ≤ 0.25 mg/L; MIC ([12]; Candidozyma auris, 8977, read-out: MIC C. auris 8977): 32 mg/L; MIC ([12]; Candidozyma auris, 8977, Table 4, extended panel, 24 hours, ≥50% inhibition, read-out: MIC C. auris 8977): 32 mg/L; MIC ([13]; Candidozyma auris, 8971, read-out: MIC C. auris 8971): > 32 mg/L; MIC ([13]; Candidozyma auris, 8971, Table 4, extended panel, 24 hours, ≥50% inhibition, read-out: MIC C. auris 8971): > 32 mg/L; MIC ([14]; Candidozyma auris, 8984, read-out: MIC C. auris 8984): > 128 mg/L; MIC ([14]; Candidozyma auris, 8984, Table 4, extended panel, 24 hours, ≥50% inhibition, read-out: MIC C. auris 8984): > 128 mg/L; MIC [15]: ≤ 0.00781 mg/L; MIC [16]: ≤ 0.0078 mg/L; MIC [17]: 1 mg/L; MIC [18]: 0.25 mg/L; MIC [19]: 0.25 mg/L; MIC [20]: 0.25 mg/L; MIC [21]: 0.25 mg/L; MIC ([6]; TDG2211, read-out: MIC C. auris 2211): > 128 mg/L; MIC ([7]; TDG2506, read-out: MIC C. auris 2506): 2 mg/L; MIC ([9]; NCPF3876, read-out: MIC C. Krusei NCPF3876): 0.5 to 2 mg/L; MIC ([11]; NCPF8018, read-out: MIC C. Glabrata NCPF8018): 1 mg/L; MIC ([10]; Table 6, Candida albicans panel): ≤ 0.007 mg/L"
